Values quoted from earlier work as cited in patent publication US20180000940A1, “INJECTABLE FORMULATIONS OF PARACETAMOL” (TROIKAA PHARMACEUTICALS LIMITED, priority 2014, published 2018).

Conditions: solution no 20: 30% propylene-glycol, 40% polyethylene-glycol 400, 30% water; 20° C.

CC(=O)Nc1ccc(O)cc1 [paracetamol, Paracetamol]
Amount of paracetamol that can be dissolved: about 200 mg/ml
